We go through 22 molecules from US20230251277A1, “METHOD FOR DETERMINING THE LEVEL OF VITAMIN D AND METABOLITES THEREOF” (Roche Diagnostics Operations, Inc., priority 2020, published 2023).

Converted amounts (≈) assume the structure as drawn. “Also recorded” adds a separate entry of the source.

One may read the solubility as the dissolved amount per volume that the medium holds. The low end stands for little dissolved substance, the high end for much dissolved substance.

Series [1] can be described thus: physchem. The settings on record: aqueous with cosolvent or surfactant or cyclodextrin.
Series [2] has as its target T1, Vitamin D binding protein (Homo sapiens, UniProt P02774).
T1 sequence (P02774 17-474): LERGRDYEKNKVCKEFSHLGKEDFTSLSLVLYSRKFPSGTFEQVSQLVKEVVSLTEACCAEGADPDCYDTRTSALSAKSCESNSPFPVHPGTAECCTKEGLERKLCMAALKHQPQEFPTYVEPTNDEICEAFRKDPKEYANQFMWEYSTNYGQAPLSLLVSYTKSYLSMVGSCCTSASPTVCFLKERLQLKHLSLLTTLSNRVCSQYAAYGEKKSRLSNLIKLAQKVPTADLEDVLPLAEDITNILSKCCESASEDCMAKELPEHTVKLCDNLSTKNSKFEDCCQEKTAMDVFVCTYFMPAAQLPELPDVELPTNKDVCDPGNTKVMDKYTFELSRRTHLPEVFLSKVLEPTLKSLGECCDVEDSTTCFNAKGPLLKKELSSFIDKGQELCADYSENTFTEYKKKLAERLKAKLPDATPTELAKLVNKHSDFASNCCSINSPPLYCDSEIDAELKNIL
The series is described as follows: Screening of releasing reagent candidates: recovery of Vitamin D metabolites from spiked native serum pool (immunobead capture, LC-MS/MS). In kind it is biochemical. The arrangement: native serum pool and homogenized; from tissue; host or cells: native serum pool (spiked with vitamin D metabolites). To be noted: 45 µl pretreatment reagent at the concentration of the 1st table. As to the method:
0.30 ml di-OH Vitamin D stock solution ([…] 24R,25-di-OH Vitamin D3 and […] 24R,25-di-OH Vitamin D2 in methanol) and 0.55 ml mono-OH Vitamin D stock solution (10.00 µg/ml 25-OH Vitamin D3 and 10.00 µg/ml 25-OH Vitamin D2 in methanol) are added to 99.1 5 ml native serum pool and homogenized. Thus resulting concentrations in the spiked pool are: • 3.9 ng/ml 24R,25-di-OH Vitamin D3 • 6.0 ng/ml 24R,25-di-OH Vitamin D2 • 55.0 ng/ml 25-OH Vitamin D2 • 84.9 ng/ml 25-OH Vitamin D3 Endogenous amounts in the original native serum pool are taken into account.
Molar concentrations of the evaluated chemicals are:
10 µl Vitamin D free serum (representing ISTD dummy) are pipetted to 145 µl sample in a plastic vessel. After incubation with periodic shaking for 231 s at 37° C., 45 µl pretreatment reagent are added. Again, an incubation with periodic shaking for 640 s at 37° C. takes place. Therefore Vitamin D should be or is gently released from Vitamin D binding protein. In the next step 50 µl immunobead suspension are pipetted to the mixture. Again, an incubation with periodic shaking for 393 s at 37℃ takes place. After twofold bead wash using 0.01 M PBS and magnetic separation, 60 µl of the elution reagent water/methanol 2/8 (v/v) are added and a 40 s incubation period takes place. It is possible to transfer 40 µl supernatant in a HPLC glass vial while 20 µl have to remain in the vessel to avoid the carry-over of beads into the supernatant. In the final step 40 µl internal standard working solution are added to the supernatant and homogenized by means of sip and spit pipetting technique.
HPLC-MS/MS analysis is performed using a 1290 infinity Multisampler and a 1290 Inifinity LC System (Agilent Technologies, Santa Clara/USA) coupled to a Triple Quad 6500+ MS (Sciex, Darmstadt).
40 µl of each sample are injected on the analytical C18 column (50×2.1 mm, 2.6 µm, Hitachi, Tokio/Japan) in order to separate the analytes. This is realized with a flow rate of 1.0 ml/min and at a column temperature of 50° C. Separation of the analytes is achieved with the following gradient of 50 mM formic acid (A) and methanol (B): • 0.00 min: 80% […] • 0.70 min: 90% B • 0.75 min: 98% B • 1.70 min: 98% B • 1.80 min: 80% B • 2.40 min: 80% B
The coupled MS detector is operating in positive electrospray ionisation (ESI) mode. The Vitamin D analytes are detected using multi reaction monitoring (MRM) technique. Doing this two periods are applied: 0.00-0.60 min for measurement of 24R,25-di-OH Vitamin D2/D3 and 0.60-2.40 min for the detection of 25-OH Vitamin
Calibration is performed by means of LC-MS/MS of Vitamin D standards in solvent (60% MeOH) containing internal standards as concentrated as in the processed samples. For example, calibration levels for 25-OH Vitamin D3 are 2, 5, 10, 25, 50 and 100 ng/ml, while the concentration of 25-OH Vitamin D3 13C5 is set to 30 ng/ml.
Due to the fact that internal standard concentrations are identical both in calibrators and processed samples, it is possible to calculate recoveries for each analyte with the formula: […]
The results are shown in FIGS. 2 to 5 show the recovery of the releasing reagent candidates for 25-OH Vitamin D3 (FIG. 2), 25-OH Vitamin D2 (FIG. 3), 24R25-di-OH Vitamin D3 (FIG. 4) and 24R25-di-OH Vitamin D2 (FIG. 5).
Each error bar in FIGS. 2 and 5 is constructed using the min and the max. of the data.

A short description of series [3]: Dynamic viscosity of the releasing reagent solution. In kind it is physicochemical.
Series [4] concerns the target T1, Vitamin D binding protein. The series is described as follows: Pretreatment optimization (design of experiments): 25-OH Vitamin D3 area ratio / analyte recovery in serum, plasma, Vitamin D free serum.

`O=C([O-])c1ccccc1O.[Na+]` [PT1, Sodium Salicylate, reference compound] yielded a solubility in series [1] of 5600 mM. Also, in series [2] (FIGS. 2 to 5), the “recovery of Vitamin D metabolites (25-OH D3, 25-OH D2, 24R,25-di-OH D3, 24R,25-di-OH D2)” value (shortened to “recovery of Vitamin D metabolites”) is “Highest recoveries”. Besides, the dynamic viscosity in series [3] (at 6° C. for 5.6 M solution in 0.01 M PBS/methanol 9/1) turned out to be 23 mPas; in series [3] (at 6° C., (pre)treatment containing 5.6 M (PT1)) it was 23 mPa·s.

For `N.O=C(O)c1ccccc1O` [PT2, Ammonium Salicylate], in series [1], the solubility turned out to be 5600 mM. Further, the “recovery of Vitamin D metabolites” value in series [2] (FIGS. 2 to 5) is reported as “Highest recoveries”.

Regarding `O=C(OCCO)c1ccccc1O` [PT3, Ethylen glycol monosalicylate], the solubility in series [1] came out at 50 mM (≈ 9110 µg/mL).

On to `O=C(O)c1ccc(O)c(C(=O)O)c1` [PT4, 4-Hydroxyisophthalic acid], for which the concentration in solution in series [1] (solubility) was 1 mM (≈ 182 µg/mL).

As for `O=C(O)c1cccc(O)c1` [PT5, 3-Hydroxybenzoic acid], in series [1], the solubility turned out to be 50 mM (≈ 6910 µg/mL). For the same molecule, the “recovery of Vitamin D metabolites” value in series [2] (FIGS. 2 to 5) is “Highest recoveries”.

The molecule `Cc1ccc(C(=O)O)c(O)c1` [PT6, 4-Methylsalicylic acid] returned a solubility in series [1] of 20 mM (≈ 3040 µg/mL).

As for `O=C(O)c1ccc(O)cc1O` [PT7, 2,4-Dihydroxybenzoic acid], the solubility in series [1] was 50 mM (≈ 7710 µg/mL). Also, in series [2] (FIGS. 2 to 5), the “recovery of Vitamin D metabolites” value is recorded as “Highest recoveries”.

With `COC(=O)c1ccc(O)cc1.[Na]` [PT8, Methylparaben Sodium], in series [2] (FIGS. 2 to 5), the “recovery of Vitamin D metabolites” value was “Lowest recoveries”.

In series [1], `COc1ccccc1C(=O)O` [PT9, 2-Methoxy-benzoic acid] registered a solubility of 30 mM (≈ 4560 µg/mL).

As for `CC(=O)Oc1ccccc1C(=O)O` [PT10, Aspirin, reference compound], the solubility in series [1] was 10 mM (≈ 1800 µg/mL).

In the case of `O=C(O)c1cc(/N=N/c2ccc(S(=O)(=O)Nc3ccccn3)cc2)ccc1O` [PT11, Sulfasalazine, reference compound], in series [1], the solubility turned out to be 9 mM (≈ 3590 µg/mL).

In turn, `O=C(O)c1ccccc1O` [PT12, Salicylic acid, reference compound] showed a solubility in series [1] of 30 mM (≈ 4140 µg/mL).

`Cc1ccc(O)c(C(=O)O)c1` [PT13, 2-Hydroxy-5-methylbenzoic acid] had a solubility in series [1] of 10 mM (≈ 1520 µg/mL). This solubility lies about 3-fold lower than the previous one.

With `COC(=O)c1ccc(O)cc1` [PT14, Methyl-4-hydroxybenzoate], the “recovery of Vitamin D metabolites” value in series [2] (FIGS. 2 to 5) is reported as “Lowest recoveries”.

Turning to `Cc1cccc(C(=O)O)c1O` [PT15, 3-Methylsalicylic acid], the solubility in series [1] stood at 10 mM (≈ 1520 µg/mL). This lies in the millimolar range.

Regarding `COC(=O)c1ccccc1O` [PT16, Methyl Salicylate, reference compound], the solubility in series [1] came to 10 mM (≈ 1520 µg/mL).

Molecule `O=C(Oc1ccccc1)c1ccccc1O` [PT17, Phenyl Salicylate] yielded a solubility in series [1] of 0.9 mM (≈ 193 µg/mL).

Take `O=C(O)c1cc(-c2ccc(F)cc2F)ccc1O` [PT18, Diflunisal, reference compound]: the solubility in series [1] was 0.4 mM (≈ 100 µg/mL).

`CCOC(=O)c1cc(OCC)ccc1O` [PT19, Ethyl-5-ethoxy-2-hydroxybenzoate] yielded a solubility in series [1] of 4 mM (≈ 841 µg/mL).

`O=C([O-])c1cccc(O)c1.[Na+]` [PT20, 3-Hydroxybenzoic acid sodium salt]: the solubility in series [1] stood at 2800 mM. Moreover, the “recovery of Vitamin D metabolites” value in series [2] (FIGS. 2 to 5) is “Highest recoveries”.

On to `Cc1cccc(C(=O)[O-])c1O.[Na+]` [PT21, 3-Methyl Salicylic acid Sodium salt], for which, in series [4] (450 mM formic acid/0.7 M versus 0 mM formic acid/2.3 M), the “Vitamin D release in a patient serum sample” value is on record as “comparable Vitamin D release”. The “analyte recovery compared with 5.6 M Salicylic acid sodium salt (PT1)” value in series [4] (optimized pretreatment: 2.3 M, 35/65 (v/v) methanol/0.01 M PBS, 0% FA, Sodium salt) is “comparable to the recovery with salicylic acid sodium salt”. The “recovery of Vitamin D metabolites” value is on record as “Highest recoveries; also recorded: highest analyte recovery” in series [2] (FIGS. 2 to 5, Sodium salt) and “highest analyte recovery” in series [2] (FIGS. 2 to 5, listed as 3-methylsalicylic acid sodium salt, Sodium salt). In addition, the dynamic viscosity in series [3] (at 6° C., 2.3 M dissolved in 35/65 MeOH/0.01 M PBS (v/v)) was 8.3 mPa·s.

As for `O=C(O)c1ccc(C(F)(F)F)cc1O` [PT22, 2-Hydroxy-4-trifluoromethylbenzoic acid], in series [1], the solubility turned out to be 6 mM (≈ 1240 µg/mL).
